Experimental data as given in patent US9730937B2, “RAF kinase modulator compounds and methods of use thereof” (AMBIT BIOSCIENCES CORPORATION, priority 2008, dated 2017).

Test system: panel of 290 distinct kinases (321 in the larger panel), excluding mutant variants
Details: asterisk: panel of 321 distinct kinases
Description: The liganded beads were blocked with excess biotin and washed with blocking buffer (SeaBlock (Pierce), 1% BSA, 0.05% Tween 20, 1 mM DTT) to remove unbound ligand and to reduce non-specific binding. […] Test compounds were prepared as 100× stocks in DMSO and rapidly diluted into the aqueous environment. DMSO was added to control assays lacking a test compound. Primary screen interactions were performed in polypropylene 384-well plates in a final volume of 34 μL, while Kd determinations were performed in polystyrene 96-well plates in a final volume of 135 μL. […] The kinase concentration in the eluates was measured by quantitative PCR. Each kinase was tested individually against each compound. KdS were determined using eleven serial threefold dilutions. A selectivity score, which is a quantitative measure of selectivity of a compound against a panel of enzymes, may be calculated for a compound by dividing the number of enzymes for which a compound meets a set criteria, (for example, a binding constant of 100 nM or less), by the total number of enzymes tested. […] (Note, for those compounds tested in a larger kinase panel, as indicated by an asterisk (*) next to the S35 score, the divisor is 321 (i.e. the larger panel contains 321 distinct kinases, excluding mutant variants.)).

Q: `COCCOc1cc2ncnc(Sc3cccc(NC(=O)Nc4cc(C(C)C)on4)c3)c2cc1OC` [Ex 232, 1-(5-isopropylisoxazol-3-yl)-3-(3-(6-methoxy-7-(2-methoxyethoxy)quinazolin-4-ylthio)phenyl)urea] was tested. Which S35 did it give?
A: C* (0.20 < C ≦ 0.40)

Q: `COCCOc1cc2ncnc(Oc3cccc(NC(=O)Nc4ccc(C(F)(F)F)c(OC)c4)c3)c2cc1OC` [Ex 223, 1-(3-methoxy-4-(trifluoromethyl)phenyl)-3-(3-(6-methoxy-7-(2-methoxyethoxy)quinazolin-4-yloxy)phenyl)urea] was tested. Which S35 did it give?
A: C* (0.20 < C ≦ 0.40)

Q: `COCCOc1cc2ncnc(Oc3cccc(NC(=O)Nc4cc(C(C)(CF)CF)on4)c3)c2cc1OC` [Ex 213, 1-[5-(1,3-difluoro-2-methylpropan-2-yl)isoxazol-3-yl]-3-{3-[6-methoxy-7-(2-methoxyethoxy)quinazolin-4-yloxy]phenyl}urea] was tested. Which S35 did it give?
A: D* (D > 0.40)

Q: `COCCOc1cc2ncnc(Sc3cccc(NC(=O)Nc4cc(C(C)(CF)CF)on4)c3)c2cc1OC` [Ex 230, 1-[5-(1,3-difluoro-2-methylpropan-2-yl)isoxazol-3-yl]-3-{3-[6-methoxy-7-(2-methoxyethoxy)quinazolin-4-ylthio]phenyl}urea] was tested. Which S35 did it give?
A: C* (0.20 < C ≦ 0.40)

Q: With `COCCOc1cc2ncnc(Sc3cccc(NC(=O)Nc4ccc(C(F)(F)F)c(F)c4)c3)c2cc1OC` [Ex 231, 1-(3-fluoro-4-(trifluoromethyl)phenyl)-3-(3-(6-methoxy-7-(2-methoxyethoxy)quinazolin-4-ylthio)phenyl)urea] as the molecule, how does the S35 read?
A: B* (0.10 < B ≦ 0.20)

Q: `COCCOc1cc2ncnc(Sc3cccc(NC(=O)Nc4cc(C(C)(CF)CF)nn4-c4ccccc4)c3)c2cc1OC` [Ex 238, 1-[3-(1,3-difluoro-2-methylpropan-2-yl)-1-phenyl-1H-pyrazol-5-yl]-3-{3-[6-methoxy-7-(2-methoxyethoxy)quinazolin-4-ylthio]phenyl}urea] was tested. Which S35 did it give?
A: D* (D > 0.40)

Q: How did the S35 turn out when `COCCOc1cc2ncnc(Sc3cccc(NC(=O)Nc4cc(C(F)(F)F)nn4C)c3)c2cc1OC` [Ex 239, 1-{3-[6-methoxy-7-(2-methoxyethoxy)quinazolin-4-ylthio]phenyl}-3-[1-methyl-3-(trifluoromethyl)-1H-pyrazol-5-yl]urea] was run?
A: D* (D > 0.40)

Q: How did the S35 turn out when `COCCOc1cc2ncnc(Oc3cccc(NC(=O)Nc4cc(C5CCCC5)no4)c3)c2cc1OC` [Ex 207, 1-(3-cyclopentylisoxazol-5-yl)-3-(3-(6-methoxy-7-(2-methoxyethoxy)quinazolin-4-yloxy)phenyl)urea] was run?
A: C* (0.20 < C ≦ 0.40)

Q: `COCCOc1cc2ncnc(Oc3cccc(NC(=O)Nc4cc(C(F)(F)F)nn4-c4ccc(F)cc4)c3)c2cc1OC` [Ex 226, 1-[1-(4-fluorophenyl)-3-(trifluoromethyl)-1H-pyrazol-5-yl]-3-{3-[6-methoxy-7-(2-methoxyethoxy)quinazolin-4-yloxy]phenyl}urea] was tested. Which S35 did it give?
A: C* (0.20 < C ≦ 0.40)

Q: Which S35 does the source give for `COCCOc1cc2ncnc(Oc3cccc(NC(=O)Nc4cc(C(F)(F)F)n(-c5ccccc5)n4)c3)c2cc1OC` [Ex 225, 1-{3-[6-methoxy-7-(2-methoxyethoxy)quinazolin-4-yloxy]phenyl}-3-[1-phenyl-5-(trifluoromethyl)-1H-pyrazol-3-yl]urea] here?
A: C* (0.20 < C ≦ 0.40)

Same assay, conditions: kinase selectivity score, 290 distinct kinases; class symbols

Q: How did the S35 turn out when `COc1cc(NC(=O)Nc2cccc(Oc3ncnc4cc(OC)c(OC)cc34)c2)cc(C(F)(F)F)c1` [Ex 116, 1-(3-(6,7-dimethoxyquinazolin-4-yloxy)phenyl)-3-(3-methoxy-5-(trifluoromethyl)phenyl)urea] was run?
A: B (0.10 < B ≦ 0.20)

Q: For `COCCOc1cc2ncnc(Oc3cccc(NC(=O)Nc4cc(-c5ccccc5)on4)c3)c2cc1OC` [Ex 203, 1-(3-(6-methoxy-7-(2-methoxyethoxy)quinazolin-4-yloxy)phenyl)-3-(5-phenylisoxazol-3-yl)urea], which S35 is on record?
A: B (0.10 < B ≦ 0.20)

Same assay, conditions: kinase selectivity score, value marked * (larger kinase panel); class symbols

Q: `COc1cc2ncnc(Sc3cccc(NC(=O)Nc4ccc(C(F)(F)F)cc4)c3)c2cc1OC` [Ex 184, 1-(3-(6,7-dimethoxyquinazolin-4-ylthio)phenyl)-3-(4-(trifluoromethyl)phenyl)urea] was tested. Which S35 did it give?
A: C* (0.20 < C ≦ 0.40)

Q: For `COc1cc2ncnc(Oc3cccc(NC(=O)Nc4cc(C(C)(C)F)no4)c3)c2cc1OCCCS(C)(=O)=O` [Ex 42, 1-(3-(2-fluoropropan-2-yl)isoxazol-5-yl)-3-(3-(7-methoxy-6-(3-(methylsulfonyl)propoxy)quinazolin-4-yloxy)phenyl)urea], which S35 is on record?
A: C* (0.20 < C ≦ 0.40)

Same assay, conditions: no asterisk: panel of 290 distinct kinases

Q: For `COc1cc2ncnc(Oc3cccc(NC(=O)Nc4cc(C(C)(C)C)nn4-c4cccc(C)c4)c3)c2cc1OC` [Ex 285, 1-(3-tert-butyl-1-m-tolyl-1H-pyrazol-5-yl)-3-(3-(6,7-dimethoxyquinazolin-4-yloxy)phenyl)urea], which S35 is on record?
A: D (D > 0.40)

Q: With `COc1cc2ncnc(Oc3cccc(NC(=O)Nc4cc(C(C)(C)C)nn4-c4cccc(Cl)c4)c3)c2cc1OC` [Ex 363, 1-(3-tert-butyl-1-(3-chlorophenyl)-1H-pyrazol-5-yl)-3-(3-(6,7-dimethoxyquinazolin-4-yloxy)phenyl)urea] as the molecule, how does the S35 read?
A: D (D > 0.40)

Q: Which S35 does the source give for `COc1cc2ncnc(Oc3ccc(F)c(NC(=O)Nc4cc(C(C)(C)C)nn4-c4ccccc4)c3)c2cc1OC` [Ex 368, 1-(3-tert-butyl-1-phenyl-1H-pyrazol-5-yl)-3-(5-(6,7-dimethoxyquinazolin-4-yloxy)-2-fluorophenyl)urea] here?
A: D (D > 0.40)

Q: Which S35 does the source give for `COc1cc2ncnc(Sc3cccc(NC(=O)Nc4cc(C(C)(C)C)nn4-c4ccccc4C(F)(F)F)c3)c2cc1OC` [Ex 375, 1-(3-tert-butyl-1-(2-(trifluoromethyl)phenyl)-1H-pyrazol-5-yl)-3-(3-(6,7-dimethoxyquinazolin-4-ylthio)phenyl)urea] here?
A: C (0.20 < C ≦ 0.40)

Q: `CCc1cc(NC(=O)Nc2cccc(Sc3ncnc4cc(OC)c(OC)cc34)c2)n(-c2ccccc2)n1` [Ex 399, 1-(3-(6,7-dimethoxyquinazolin-4-ylthio)phenyl)-3-(3-ethyl-1-phenyl-1H-pyrazol-5-yl)urea] was tested. Which S35 did it give?
A: C (0.20 < C ≦ 0.40)

Q: For `COc1cc2ncnc(Oc3cccc(NC(=O)Nc4cc(C(C)(C)C)nn4-c4ccc(C)cc4C)c3)c2cc1OC` [Ex 282, 1-(3-tert-butyl-1-(2,4-dimethylphenyl)-1H-pyrazol-5-yl)-3-(3-(6,7-dimethoxyquinazolin-4-yloxy)phenyl)urea], which S35 is on record?
A: C (0.20 < C ≦ 0.40)

Q: Which S35 does the source give for `COc1cc2ncnc(Oc3cccc(NC(=O)Nc4cc(C(C)(C)C)nn4-c4ccccc4)c3F)c2cc1OC` [Ex 295, 1-(3-tert-butyl-1-phenyl-1H-pyrazol-5-yl)-3-(3-(6,7-dimethoxyquinazolin-4-yloxy)-2-fluorophenyl)urea] here?
A: C (0.20 < C ≦ 0.40)

Q: Which S35 does the source give for `COc1cc2ncnc(Oc3cccc(NC(=O)Nc4cc(C5(C(F)(F)F)CC5)on4)c3)c2cc1OC` [Ex 377, 1-(3-(6,7-dimethoxyquinazolin-4-yloxy)phenyl)-3-(5-(1-(trifluoromethyl)cyclopropyl)isoxazol-3-yl)urea] here?
A: C (0.20 < C ≦ 0.40)

Q: How did the S35 turn out when `COc1cc2ncnc(Oc3cccc(NC(=O)Nc4cc(C(C)(C)CN5CCOCC5)on4)c3)c2cc1OC` [Ex 302, 1-(3-(6,7-dimethoxyquinazolin-4-yloxy)phenyl)-3-(5-(2-methyl-1-morpholinopropan-2-yl)isoxazol-3-yl)urea] was run?
A: B (0.10 < B ≦ 0.20)

Q: With `COc1cc2ncnc(Oc3cccc(NC(=O)Nc4cc(C(C)(C)C(F)(F)F)on4)c3F)c2cc1OC` [Ex 265, 1-(3-(6,7-dimethoxyquinazolin-4-yloxy)-2-fluorophenyl)-3-(5-(1,1,1-trifluoro-2-methylpropan-2-yl)isoxazol-3-yl)urea] as the molecule, how does the S35 read?
A: C (0.20 < C ≦ 0.40)

Q: Which S35 does the source give for `COc1cc2ncnc([S+]([O-])c3cccc(NC(=O)Nc4cc(C(C)(C)C)on4)c3)c2cc1OC` (stereo not drawn) [Ex 253, 1-(5-tert-butylisoxazol-3-yl)-3-(3-(6,7-dimethoxyquinazolin-4-ylsulfinyl)phenyl)urea] here?
A: C (0.20 < C ≦ 0.40)

Q: With `COc1cc2ncnc(Oc3cccc(NC(=O)Nc4cc(C(C)(C)C)nn4-c4ccc(C)cc4)c3)c2cc1OC` [Ex 274, 1-(3-tert-butyl-1-p-tolyl-1H-pyrazol-5-yl)-3-(3-(6,7-dimethoxyquinazolin-4-yloxy)phenyl)urea] as the molecule, how does the S35 read?
A: D (D > 0.40)

Q: For `COc1cc2c(Oc3cccc(NC(=O)Nc4cc(C(F)(F)F)nn4-c4ccccc4)c3)ncnc2cc1OCCN1CCOCC1` [Ex 396, 1-(3-(6-Methoxy-7-(2-morpholinoethoxy)quinazolin-4-yloxy)phenyl)-3-(1-phenyl-3-(trifluoromethyl)-1H-pyrazol-5-yl)urea], which S35 is on record?
A: C (0.20 < C ≦ 0.40)

Q: `COc1cc2ncnc(Sc3cccc(NC(=O)Nc4cc(C(C)(C)C)nn4-c4ccccc4F)c3)c2cc1OC` [Ex 371, 1-(3-tert-butyl-1-(2-fluorophenyl)-1H-pyrazol-5-yl)-3-(3-(6,7-dimethoxyquinazolin-4-ylthio)phenyl)urea] was tested. Which S35 did it give?
A: D (D > 0.40)

Q: Which S35 does the source give for `COc1cc2ncnc(Sc3cccc(NC(=O)Nc4cc(C(C)(C)C)nn4-c4cccc(Cl)c4)c3)c2cc1OC` [Ex 364, 1-(3-tert-butyl-1-(3-chlorophenyl)-1H-pyrazol-5-yl)-3-(3-(6,7-dimethoxyquinazolin-4-ylthio)phenyl)urea] here?
A: D (D > 0.40)

Q: Which S35 does the source give for `COc1cc2ncnc(Oc3cccc(NC(=O)Nc4cc(C(F)(F)C(F)(F)F)nn4-c4ccccc4)c3)c2cc1OC` [Ex 304, 1-(3-(6,7-dimethoxyquinazolin-4-yloxy)phenyl)-3-(3-(perfluoroethyl)-1-phenyl-1H-pyrazol-5-yl)urea] here?
A: C (0.20 < C ≦ 0.40)

Q: Which S35 does the source give for `COc1cc2ncnc(Oc3cccc(NC(=O)Nc4cc(C(C)(C)C)nn4-c4cccc(F)c4)c3)c2cc1OC` [Ex 359, 1-(3-tert-butyl-1-(3-fluorophenyl)-1H-pyrazol-5-yl)-3-(3-(6,7-dimethoxyquinazolin-4-yloxy)phenyl)urea] here?
A: D (D > 0.40)

Q: Which S35 does the source give for `COc1cc2ncnc(Oc3cccc(NC(=O)Nc4cccc(C(C)(C)C#N)c4)c3)c2cc1OC` [Ex 278, 1-(3-(2-cyanopropan-2-yl)phenyl)-3-(3-(6,7-dimethoxyquinazolin-4-yloxy)phenyl)urea] here?
A: C (0.20 < C ≦ 0.40)

Q: `CCOc1cc2c(Oc3cccc(NC(=O)Nc4cc(C(C)(C)F)no4)c3)ncnc2cc1OC` [Ex 392, 1-(3-(6-ethoxy-7-methoxyquinazolin-4-yloxy)phenyl)-3-(3-(2-fluoropropan-2-yl)isoxazol-5-yl)urea] was tested. Which S35 did it give?
A: C (0.20 < C ≦ 0.40)
